Results reported in ChEMBL document CHEMBL1909046, “DrugMatrix in vitro pharmacology data”.

Legend:
[1] = target: C-C chemokine receptor type 2 (Homo sapiens, UniProt P41597); type: cell membranes, Membrane; settings: cho-k1; note: in other assays of this panel Not Active means under 50% inhibition at 10 µM
Vasopressin V1a receptor = Vasopressin V1a receptor (Homo sapiens, UniProt P37288); type: cell membranes, Membrane; settings: hek293; note: in other assays of this panel Not Active means under 50% inhibition at 10 µM
Sequence of Vasopressin V1a receptor (P37288 whole entry): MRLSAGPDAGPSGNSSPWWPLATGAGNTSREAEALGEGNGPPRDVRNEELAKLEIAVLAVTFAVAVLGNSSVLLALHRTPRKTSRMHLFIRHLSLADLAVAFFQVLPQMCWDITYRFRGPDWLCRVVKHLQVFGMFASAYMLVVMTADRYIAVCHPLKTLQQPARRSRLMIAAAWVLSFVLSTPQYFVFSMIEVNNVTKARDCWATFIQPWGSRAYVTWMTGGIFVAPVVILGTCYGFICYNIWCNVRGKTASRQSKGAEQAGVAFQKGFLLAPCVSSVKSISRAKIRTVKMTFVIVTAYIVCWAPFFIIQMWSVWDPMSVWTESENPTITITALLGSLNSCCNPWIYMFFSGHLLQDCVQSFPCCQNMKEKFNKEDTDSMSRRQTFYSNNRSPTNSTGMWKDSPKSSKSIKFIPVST

[2] = DRUGMATRIX: Calcium Channel Type L, Phenylalkylamine radioligand binding (ligand: [3H] (-)-Desmethoxyverapamil (D-888)); type: cell membranes, Rattus norvegicus, Wistar, Brain, Membrane; settings: Not Active = under 50% inhibition at 10 µM
Cytochrome P450 2A6 = target: T1, Cytochrome P450 2A6 (Homo sapiens, UniProt P11509); settings: bti-tn-5b1-4; note: in other assays of this panel Not Active means under 50% inhibition at 10 µM
T1 sequence (P11509 whole entry): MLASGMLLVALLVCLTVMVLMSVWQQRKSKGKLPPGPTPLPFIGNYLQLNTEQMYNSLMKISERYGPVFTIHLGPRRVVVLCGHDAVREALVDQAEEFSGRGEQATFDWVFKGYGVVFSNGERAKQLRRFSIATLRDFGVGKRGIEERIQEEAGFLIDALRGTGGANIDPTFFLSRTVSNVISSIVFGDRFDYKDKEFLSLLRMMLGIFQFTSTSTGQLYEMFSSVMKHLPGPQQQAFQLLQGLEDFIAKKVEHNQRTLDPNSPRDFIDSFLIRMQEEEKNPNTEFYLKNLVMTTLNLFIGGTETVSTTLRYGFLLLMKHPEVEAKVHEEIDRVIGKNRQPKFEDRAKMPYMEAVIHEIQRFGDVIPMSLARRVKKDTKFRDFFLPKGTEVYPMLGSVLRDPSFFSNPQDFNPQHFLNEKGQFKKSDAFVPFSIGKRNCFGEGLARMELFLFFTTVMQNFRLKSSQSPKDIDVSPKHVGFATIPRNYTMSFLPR

[3] = target: T2, Amine oxidase [flavin-containing] A (Homo sapiens, UniProt P21397); experiment: DRUGMATRIX: Monoamine Oxidase MAO-A enzyme inhibition (substrate: Kynuramine); set-up: species or system BTI-TN-5B1-4; settings: bti-tn-5b1-4; Not Active = under 50% inhibition at 10 µM
T2 sequence (P21397 whole entry): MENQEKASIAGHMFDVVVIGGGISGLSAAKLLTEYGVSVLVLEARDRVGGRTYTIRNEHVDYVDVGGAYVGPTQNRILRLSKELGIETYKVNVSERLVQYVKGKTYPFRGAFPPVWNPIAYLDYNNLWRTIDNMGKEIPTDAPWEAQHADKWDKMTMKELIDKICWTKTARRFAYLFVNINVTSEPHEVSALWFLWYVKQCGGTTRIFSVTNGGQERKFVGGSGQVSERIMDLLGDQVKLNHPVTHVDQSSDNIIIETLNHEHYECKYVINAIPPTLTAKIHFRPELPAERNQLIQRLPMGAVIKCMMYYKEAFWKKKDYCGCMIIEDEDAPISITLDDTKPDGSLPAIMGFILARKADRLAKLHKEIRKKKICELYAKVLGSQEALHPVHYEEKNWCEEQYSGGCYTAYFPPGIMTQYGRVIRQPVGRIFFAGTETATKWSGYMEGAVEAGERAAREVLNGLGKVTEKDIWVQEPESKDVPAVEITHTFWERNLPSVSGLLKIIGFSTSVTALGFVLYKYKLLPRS

[4] = target: T3, Angiotensin-converting enzyme (Oryctolagus cuniculus, UniProt P12822); type: tissue-based, Lung;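 note: enzymatic inhibition of angiotensin-converting enzyme measured with FAPGG as the substrate; in other assays of this panel Not Active means under 50% inhibition at 10 µM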
T3 sequence (P12822 whole entry): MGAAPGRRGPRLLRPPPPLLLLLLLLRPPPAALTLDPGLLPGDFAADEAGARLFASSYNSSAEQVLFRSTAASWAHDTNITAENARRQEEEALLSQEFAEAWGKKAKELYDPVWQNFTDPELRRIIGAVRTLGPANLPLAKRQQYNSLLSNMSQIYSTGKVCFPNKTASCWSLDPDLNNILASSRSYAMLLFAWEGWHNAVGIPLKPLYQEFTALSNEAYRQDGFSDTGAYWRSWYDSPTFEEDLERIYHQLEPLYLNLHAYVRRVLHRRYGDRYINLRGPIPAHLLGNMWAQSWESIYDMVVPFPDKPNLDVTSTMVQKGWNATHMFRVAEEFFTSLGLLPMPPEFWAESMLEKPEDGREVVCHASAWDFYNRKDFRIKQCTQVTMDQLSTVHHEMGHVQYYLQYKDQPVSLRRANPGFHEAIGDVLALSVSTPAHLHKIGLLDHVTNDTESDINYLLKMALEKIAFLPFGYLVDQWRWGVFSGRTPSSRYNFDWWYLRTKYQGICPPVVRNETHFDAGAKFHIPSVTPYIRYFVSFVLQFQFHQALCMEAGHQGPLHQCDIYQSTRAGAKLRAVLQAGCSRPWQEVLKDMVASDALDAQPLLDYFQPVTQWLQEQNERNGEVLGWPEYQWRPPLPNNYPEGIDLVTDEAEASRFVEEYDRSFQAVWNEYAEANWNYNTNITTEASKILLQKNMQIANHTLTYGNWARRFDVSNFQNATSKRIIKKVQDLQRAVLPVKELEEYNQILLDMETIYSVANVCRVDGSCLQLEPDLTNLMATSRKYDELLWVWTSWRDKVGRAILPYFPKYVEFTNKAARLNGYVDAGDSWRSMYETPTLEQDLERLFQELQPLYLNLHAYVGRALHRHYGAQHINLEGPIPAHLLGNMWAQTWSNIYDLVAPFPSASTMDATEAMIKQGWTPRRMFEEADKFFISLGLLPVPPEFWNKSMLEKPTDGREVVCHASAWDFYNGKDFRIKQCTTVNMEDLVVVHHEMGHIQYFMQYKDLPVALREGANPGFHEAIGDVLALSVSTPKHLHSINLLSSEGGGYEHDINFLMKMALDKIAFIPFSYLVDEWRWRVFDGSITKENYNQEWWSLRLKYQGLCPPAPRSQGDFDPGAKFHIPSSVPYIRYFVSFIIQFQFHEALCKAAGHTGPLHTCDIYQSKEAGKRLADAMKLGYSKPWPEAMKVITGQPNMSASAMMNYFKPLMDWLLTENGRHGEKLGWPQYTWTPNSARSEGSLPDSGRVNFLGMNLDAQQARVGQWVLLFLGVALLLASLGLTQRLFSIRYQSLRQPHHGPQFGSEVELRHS

Adenosine receptor A3 = target: T4, Adenosine receptor A3 (Homo sapiens, UniProt P0DMS8); type: cell membranes, CHO-K1, Membrane; settings: cho-k1
T4 sequence (P0DMS8 whole entry): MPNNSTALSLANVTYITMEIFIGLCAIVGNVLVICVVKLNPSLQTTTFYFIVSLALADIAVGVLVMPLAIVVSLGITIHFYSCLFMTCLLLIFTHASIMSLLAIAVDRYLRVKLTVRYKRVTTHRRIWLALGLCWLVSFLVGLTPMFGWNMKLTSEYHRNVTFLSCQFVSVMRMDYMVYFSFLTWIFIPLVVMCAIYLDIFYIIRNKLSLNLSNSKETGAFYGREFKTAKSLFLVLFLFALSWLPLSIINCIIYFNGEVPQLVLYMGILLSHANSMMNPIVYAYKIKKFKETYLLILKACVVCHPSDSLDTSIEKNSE

Sequence of C-C chemokine receptor type 2 (P41597 whole entry): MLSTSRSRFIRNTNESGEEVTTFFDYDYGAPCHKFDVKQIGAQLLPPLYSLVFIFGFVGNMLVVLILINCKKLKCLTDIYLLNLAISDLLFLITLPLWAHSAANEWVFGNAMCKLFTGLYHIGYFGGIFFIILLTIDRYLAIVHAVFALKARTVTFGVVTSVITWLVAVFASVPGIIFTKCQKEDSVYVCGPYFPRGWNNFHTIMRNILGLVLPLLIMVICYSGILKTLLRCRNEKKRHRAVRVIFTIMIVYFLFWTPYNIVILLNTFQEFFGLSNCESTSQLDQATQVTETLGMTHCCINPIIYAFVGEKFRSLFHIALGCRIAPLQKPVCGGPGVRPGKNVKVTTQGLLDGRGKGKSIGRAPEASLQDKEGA

CCN(CC)CCNC(=O)c1cc(S(C)(=O)=O)ccc1OC [TIAPRIDE]
Not Active: IC50 [1] | IC50 (Vasopressin V1a receptor) | IC50 [2] | Ki [2] | IC50 (Cytochrome P450 2A6) | Ki (Cytochrome P450 2A6) | IC50 [3] | IC50 [4] | IC50 (Adenosine receptor A3)

Clc1ccccc1CN1CCc2sccc2C1 [TICLOPIDINE]
Not Active: IC50 [1] | IC50 (Vasopressin V1a receptor) | IC50 [2] | Ki [2] | IC50 (Cytochrome P450 2A6) | Ki (Cytochrome P450 2A6) | IC50 [3] | IC50 [4] | IC50 (Adenosine receptor A3)

NC1CCN(c2nc3c(cc2F)c(=O)c(C(=O)O)cn3-c2ccc(F)cc2F)C1 (stereo not drawn) [TOSUFLOXACIN]
Not Active: IC50 [1] | IC50 (Vasopressin V1a receptor) | IC50 [2] | Ki [2] | IC50 (Cytochrome P450 2A6) | Ki (Cytochrome P450 2A6) | IC50 [3] | IC50 [4] | IC50 (Adenosine receptor A3)

O=C(Nc1ccc(Br)cc1)c1cc(Br)cc(Br)c1O [TRIBROMSALAN]
Not Active: IC50 [1] | IC50 (Vasopressin V1a receptor) | IC50 [2] | Ki [2] | IC50 (Cytochrome P450 2A6) | Ki (Cytochrome P450 2A6) | IC50 [3] | IC50 [4] | IC50 (Adenosine receptor A3)

CC(c1cc2ccccc2s1)N(O)C(N)=O (stereo not drawn) [ZILEUTON]
Not Active: IC50 [1] | IC50 (Vasopressin V1a receptor) | IC50 [2] | Ki [2] | IC50 (Cytochrome P450 2A6) | Ki (Cytochrome P450 2A6) | IC50 [3] | IC50 [4] | IC50 (Adenosine receptor A3)

MANGANESE CHLORIDE ANHYDROUS
Not Active: IC50 [1] | Ki [1] | IC50 (Vasopressin V1a receptor) | Ki (Vasopressin V1a receptor) | IC50 [2] | Ki [2] | IC50 (Cytochrome P450 2A6) | Ki (Cytochrome P450 2A6) | IC50 [3] | Ki [3] | IC50 [4] | Ki [4] | IC50 (Adenosine receptor A3) | Ki (Adenosine receptor A3)

SODIUM ORTHOVANAD
Not Active: IC50 [1] | Ki [1] | IC50 (Vasopressin V1a receptor) | Ki (Vasopressin V1a receptor) | IC50 [2] | Ki [2] | IC50 (Cytochrome P450 2A6) | Ki (Cytochrome P450 2A6) | IC50 [3] | Ki [3] | IC50 [4] | Ki [4] | IC50 (Adenosine receptor A3) | Ki (Adenosine receptor A3)
